According to US4438201A, “Amidohydrolase having ability to depantothenylate an antibiotic” (Sanraku-Ocean Co., Ltd., priority 1981, dated 1984):

What was measured:
[1] = system: amidohydrolase (enzyme of this invention); test: Substrate specificity for N-acyl-amino acids (deacylation, standard assay); format: biochemical, Streptomyces fulvoviridis A933; details: N-chloroacetyl-L-phenylalanine as 100
Method: The relative activity in Table 1 refers to N-chloroacetyl-L-phenylalanine as 100.
(§1) Ten microliters of 0.2 M piperazine-N,N'-bis(2-ethanesulfonic acid) [=PIPES] buffer, pH 7.3, and 10 μl of 100 mM N-chloroacetyl-L-phenylalanine (adjusted to pH 6-7 with NaOH) are dissolved in 20 μl of water. After 10 μl of an enzyme solution (30-50 μg/ml) is added, the mixture is incubated at 37° C. for 15 minutes. Then, 50 μl of 50% acetic acid is added to stop the enzymatic reaction. The amount of L-phenylalanine produced from the substrate in the reaction solution is determined by the Yemm-Cocking ninhydrin colorimetric method (E. W. Yemm & E. C. Cocking: Analyst, Vol. 80, page 209, 1955) or with an amino acid automatic analyzer (Model 835-50, Hitachi Limited).

[2] = system: cell-free homogenate of Streptomyces cattleya (acylase); test: Example 2: action of cell-free homogenate on PS-5 and OA-6129A; format: biochemical, Streptomyces cattleya (NRRL 8057)
Method: Glucose (2.5 g), 1 g of corn steep liquor, 0.5 g of Pharmamedia® (a product of Traders Oil Mill Company), 0.5 g of yeast extract and 0.3 g of CaCO3 were dissolved in 100 ml of tap water, and the pH of the suspension was adjusted to 7.0. Then, 50 ml portions of the suspension were distributed in 250 ml Erlenmeyer flasks, and sterilized at 120° C. for 15 minutes. After cooling Streptomyces cattleya (NRRL 8057) was inoculated, and the flasks were cultivated at 28° C. for 90 hours with shaking.
Mycelia were collected by centrifugation and treated by the same procedure as in Example 1 to give 20 ml of a cell-free homogenate. With this fresh homogenate, the enzymological properties of Streptomyces cattleya acylase were examined.
A mixture containing 10 μl of 0.2 M potassium phosphate buffer, pH 7.4, 10 μl of an antibiotic PS-5 solution (500 μg/ml) or an antibiotic OA-6129A solution (500 μg/ml), 10 μl of acyl-CoA (5 μmoles/ml) and 20 μl of the cell-free homogenate was incubated at 37° C. for 4 hours. The product was analysed by HVPE in the same manner as in Experiment A.
The control reaction mixtures contained either no cell-free homogenate or no acyl-CoA. Acetyl-CoA and n-propionyl-CoA were used as acyl-CoA.

[3] = system: cell-free homogenate of Streptomyces argenteolus; test: Example 4: action of cell-free homogenate on PS-5 and OA-6129A; format: biochemical; details: tested as in Example 3
Method: Glycerol (4 g), 0.5 g of peptone, 0.2 g of glucose, 0.2 g of soluble starch, 0.5 g of Essan Miit®, 0.5 g of dry yeast, 0.5 g of NaCl and 0.2 g of CaCO3 were dissolved in 100 ml of tap water. Each 25 ml portion of the suspension was distributed in 250 ml Erlenmeyer flasks, and sterilized at 120° C. for 15 minutes. After cooling the culture medium, Streptomyces argenteolus was inoculated and cultivated at 28° C. for 68 hours with shaking. 20 ml of a cell extract was obtained. The same procedure of treatment as in Example 1 yielded 20 ml of a cell-free homogenate which was tested as explained in Example 3.

[4] = system: cell-free homogenate of Streptomyces cremeus subsp. auratilis; test: Example 3: action of cell-free homogenate on PS-5 and OA-6129A; format: biochemical; details: 37° C., 4 hours
Method: Soluble starch (5.2 g), 1.2 g of Essan-Miit, 0.16 g of NaCl, 0.08 g of K2 HPO4 and 0.04 g of MgSO4.7H2 O were dissolved in 80 ml of tap water and 40 ml portions of the suspension were filled in two 250 ml Erlenmeyer flasks. After autoclaving at 120° C. for 15 minutes, Streptomyces cremeus subsp. auratilis was inoculated, and cultivated at 28° C. for 68 hours. Using the same procedure as in Example 1, 20 ml of the cell-free homogenate was obtained. For confirmation of the enzyme activity, the following reactions were studied.
A mixture (50 μl) consisting of 10 μl of 0.2 M potassium phosphate buffer, pH 7.4, 10 μl of an antibiotic PS-5 solution (500 μg/ml) or an antibiotic OA-6129A solution (500 μg/ml), 20 μl of the cell-free homogenate and 10 μl of water was kept at 37° C. for 4 hours. The products were assayed by HVPE in the same way as in Experiment A.
As a control, the above reaction was carried out without the cell-free homogenate.

[5] = system: amidohydrolase (enzyme of this invention); test: Experiment A: action of the enzyme on PS-5 and OA-6129A, HVPE bioautography and pantothenate bioassay; format: biochemical, Streptomyces fulvoviridis A933
Method: A mixture (50 μl) consisting of 10 μl of 0.2 M potassium phosphate buffer, pH 7.4, 20 μl of an antibiotic PS-5 solution (500 μg/ml) or an antibiotic OA-6129A solution (500 μg/ml), 10 μl of the enzyme solution obtained in Example 1, and 10 μl of water was incubated at 37° C. for 3 hours.
As a control, the mixture minus the enzyme solution was allowed to react under the same conditions.
3 μl of each of the resulting reaction solutions was spotted on Watmann No. 1 filter paper, and subjected to electrophoresis for 50 minutes at 1500 V/30 cm with Veronal buffer, pH 8.6. After electrophoresis, the products were bioautographed with Comamonas terrigena B-996 as assay organism.

[6] = system: amidohydrolase (enzyme of this invention); test: Effects of metal ions, chelating agents and -SH inhibitors on enzyme activity; format: biochemical, Streptomyces fulvoviridis A933
Method: as §1
The relative activity in Table 2 refers to the activity of the enzyme in the absence of such chemical as 100.

[7] = system: amidohydrolase (enzyme of this invention); test: Experiment B: acyl exchange of OA-6129A with acyl-CoA; format: biochemical, Streptomyces fulvoviridis A933; details: acetyl-, n-propionyl-, n-butyryl- or glutaryl-CoA; 37° C., 3 hours
Method: A mixture consisting of 10 μl of 0.2 M potassium phosphate buffer, pH 7.4, 10 μl of a solution of antibiotic OA-6129A (500 μg/ml), 10 μl of acyl-CoA (5 μmoles/ml), 10 μl of the enzyme preparation from Example 1 and 10 μl of water was allowed to react at 37° C. for 3 hours. The product was assayed by high voltage paper electrophoresis (HVPE) in the same way as in Experiment A.
As controls, the same mixture minus acyl-CoA and the same mixture minus the enzyme solution were incubated under the same conditions as mentioned above.
Acetyl-CoA, n-propionyl-CoA, n-butyryl-CoA and glutaryl-CoA were used as acyl-CoA.

[8] = system: amidohydrolase (enzyme of this invention); test: Experiment C: acyl transfer from acyl-CoA to 6-APA; format: biochemical, Streptomyces fulvoviridis A933; details: acetyl-CoA or glutaryl-CoA; 37° C., 3 hours
Method: 0.2 M Potassium phosphate buffer, pH 7.4 (10 μl), 10 μl of 6-aminopenicillanic acid (6-APA) (500 μg/ml), 20 μl of acyl-CoA (5 μmoles/ml) and 10 μl of the enzyme preparation from Example 1 were mixed and incubated at 37° C. for 3 hours. The products were analyzed by HVPE in the same way as in Example 2, employing acetic acid buffer, pH 4.5 Acetyl-CoA and glutaryl-CoA were used as acyl-CoA.
The controls were the same reaction mixtures minus enzyme solution and acyl-CoA respectively.

[9] = additive 1 mM, activity without additive as 100, 15 min
[10] = additive 0.1 mM, activity without additive as 100, 15 min

Relative activity [1] | Compound | Relative activity [6, 9] | other results
163.8 | CC(=O)N[C@@H](C)C(=O)O [N--Acetyl-L-alanine] |  | 
23.9 | CC(=O)NCC(=O)O [N--Acetyl-glycine] |  | 
112.7 | CSCC[C@H](NC=O)C(=O)O [N--Formyl-L-methionine] |  | 
32.4 | CC(=O)N[C@H](C(=O)O)C(C)C [N--Acetyl-L-valine] |  | 
92.8 | CC(=O)N[C@@H](CC(C)C)C(=O)O [N--Acetyl-L-leucine] |  | 
262.1 | CSCC[C@H](NC(C)=O)C(=O)O [N--Acetyl-L-methionine] |  | 
39.8 | CC(=O)N[C@@H](CCCCN)C(=O)O [N--α-Acetyl-L-lysine] |  | 
15.3 | CC(=O)N[C@@H](Cc1ccccc1)C(=O)O [N--Acetyl-L-phenylalanine] |  | 
2.7 | CC(=O)N[C@@H](CCC(=O)O)C(=O)O [N--Acetyl-L-glutamic acid] |  | 
351.1 | CC(C)[C@H](NC(=O)CCl)C(=O)O [N--Chloroacetyl-L-valine] |  | 
16.4 | CC(C)C[C@H](NC=O)C(=O)O [N--Formyl-L-leucine] |  | 

Second part, the compound before the results:

Compound | Relative activity [1] | Relative activity [6, 9] | other results
CC(=O)N[C@H](C)C(=O)O [N--Acetyl-D-alanine] | 0 |  | 
CCC1C(=O)N2C(C(=O)O)=C(SCCNC(C)=O)CC12 (stereo not drawn) [PS-5] |  |  | Susceptibility of the substrate to the cell-free homogenate ([2]; irrespective of the presence of acyl-CoA, 37° C., 4 hours): not susceptible; Deacetylation by the cell-free homogenate [3]: no ability to deacetylate; Deacetylation by the cell-free homogenate [4]: no ability to deacetylate; Deacetylation of the substrate by the enzyme ([5]; 37° C., 3 hours, pH 7.4): did not attack antibiotic PS-5 at all
O=C(CCl)N[C@@H](Cc1ccccc1)C(=O)O [N--Chloroacetyl-L-phenylalanine] | 100 |  | 
[Cl][Mn][Cl] [MnCl2] |  | 74.3 | 
O=C(O)c1cc[c]([Hg][Cl])cc1 [p-CMB, pchloromercuribenzoic acid] |  | 0 | 
CC(=O)N[C@H](Cc1ccccc1)C(=O)O [N--Acetyl-D-phenylalanine] | 0 |  | 
CC(=O)N[C@@H](C(=O)O)C(C)C [N--Acetyl-D-valine] | 0 |  | 
[Cl][Cu][Cl] [CuCl2] |  | 0 | Relative activity [6, 10]: 87.5
CCC1C(=O)N2C(C(=O)O)=C(SCCNC(=O)CCNC(=O)C(O)C(C)(C)CO)CC12 (stereo not drawn) [OA-6129A] |  |  | Exchange of the pantotheinyl group with the acyl group of acyl-CoA [7]: catalyzes the exchange of the pantotheinyl group; Acyl exchange with acyl-CoA by the cell-free homogenate ([2]; acetyl-CoA present): transform to PS-5; Depantothenylation by the cell-free homogenate ([2]; without acyl-CoA, 37° C., 4 hours): catalyzes the depantothenylation; Depantothenylation by the cell-free homogenate [3]: does depantothenylate; Depantothenylation by the cell-free homogenate [4]: has the ability to eliminate the pantotheinyl group; Depantothenylation of the substrate by the enzyme ([5]; 37° C., 3 hours, pH 7.4): removes the pantotheinyl group; Concentration of pantothenate in the reaction solution ([5]; bioassay with Saccharomyces carlsbergensis (ATCC 9080), enzyme present): 8 µg/mL
[Cl][Hg][Cl] [HgCl2] |  | 0 | Relative activity ([6]; additive 0.01 mM, activity without additive as 100, 15 min): 84.5; Relative activity [6, 10]: 6.4
CC(=O)N[C@H](CC(C)C)C(=O)O [N--Acetyl-D-leucine] | 0 |  | 
[Cl][Sn][Cl] [SnCl2] |  | 64.4 | 
[Cl-].[Cl-].[Mg+2] [MgCl2] |  | 93.6 | 
O=S(=O)([O-])[O-].[Ni+2] [NiSO4] |  | 79.4 | 
[Cl][Pb][Cl] [PbCl2] |  | 58.8 | 
[Cl][Cd][Cl] [CdCl2] |  | 10.2 | 
c1cnc2c(c1)ccc1cccnc12 [o-PT, ophenanthroline] |  | 56.4 | 
O=S(=O)([O-])[O-].[Fe+2] [FeSO4] |  | 53.2 | 
[Cl-].[Cl-].[Zn+2] [ZnCl2] |  | 7.7 | 
O=C(O)CN(CCN(CC(=O)O)CC(=O)O)CC(=O)O [EDTA, ethylenediaminetetracetic acid] |  |  | Relative activity ([6]; pipes buffer, pH 7.3, 15 min, 1000 µM): 95.8
[Cl-].[Cl-].[Co+2] [CoCl2] |  | 82.4 | Relative activity ([6]; additive 0.2 mM, activity without additive as 100, 15 min): 92.3; Relative activity ([6]; additive 2 mM, activity without additive as 100, 15 min): 3.8; Relative activity ([6]; additive 4 mM, activity without additive as 100, 15 min): 0
CC1(C)S[C@@H]2[C@H](N)C(=O)N2[C@H]1C(=O)O [6-APA, 6-aminopenicillanic acid] |  |  | Acyl transfer from acyl-CoA to the amino group [8]: converted to the corresponding acyl-6-APA
CC(C)C[C@H](NC(=O)CCl)C(=O)O [N--Chloroacetyl-L-leucine] | 348.5 |  | 
CSCC[C@@H](NC(C)=O)C(=O)O [N--Acetyl-D-methionine] | 0 |  | 
[Co+2] [Co^++] |  |  | Effect of the ion on the enzyme (in words) ([6]; known acylases are activated or stabilized by 0.5 to 10 mM): inhibited
